Source: patent US20210130473A1, “TGFßR1 INHIBITOR-ASGR ANTIBODY CONJUGATES AND USES THEREOF” (Silverback Therapeutics, Inc., priority 2019, published 2021)

System: TGFβ/SMAD Signaling Pathway SBE reporter cell line
Test: TGFb reporter assay in HEK293 SBE-LUC reporter cells (luciferase)
Format: cell-based
Settings: Homo sapiens, key of the table says IC50, read-out: EC50 (the source's name)
Experimental: TGFβ/SMAD Signaling Pathway SBE reporter cell line was obtained from BPS Bioscience. Cells are passed, expanded, and stored in liquid nitrogen as per the supplier's instructions with the exception that growth media is changed to DMEM-C with Geneticin (DMEM supplemented with 10% fetal bovine serum, 1×NEAA, 1 mM Pyruvate, 2 mM glutamine, 50 μg/mL penicillin, 50 U/mL streptomycin and 400 μg/mL of Geneticin). The assay media is MEM supplemented with 0.5% fetal bovine serum, 1×NEAA, 1 mM Pyruvate, 50 μg/mL penicillin and 50 U/mL streptomycin.
Compounds are assayed to measure their activity as ALK5 inhibitors.
The HEK293 SBE-LUC reporter cells from Example 15 were grown in DMEM-C with Geneticin (DMEM supplemented with […], 1×NEAA, 1 mM Pyruvate, 2 mM glutamine, 50 μg/mL penicillin, 50 U/mL streptomycin and 400 ug/mL of Geneticin). The assay media was MEM supplemented with 0.5% fetal bovine serum, 1×NEAA, 1 mM Pyruvate, 50 μg/mL penicillin and 50 U/mL streptomycin.
The HEK293 SBE-LUC reporter cells were harvested from the tissue culture flasks by incubation in small quantity of Versene at room temperature for three to five minutes after the media in the flask is removed and cells rinsed with PBS. Cells were counted and diluted in the assay media at ˜0.8×10^6 cells/mL then 50 uL/well were added to 96-well assay plate. Test samples (at desired concentrations diluted in assay media) were added to assay plate containing the 50 uL/well of cells (or media only), 50 uL per well, and incubated for 5-6 hours at 37° C. in a 5% CO2 humidified incubator. After that time, 15 uL of TGFb diluted to 12.5 ng/mL in the assay media was added to the plate. Controls included TGFb titration (from 25 to 0 ng/mL) without inhibitors, and media only (without cells, inhibitor or TGFb). Plates were incubated at 37° C. in a 5% CO2 humidified incubator for 18h. Luciferase substrate solution was subsequently added at 75 uL per well, incubated in dark with shaking at room temperature for 10 min, and luminescence was measured using a luminometer.

SMILES | IC50
Cc1cccc(-c2nc(CNC3CCCCCC3)[nH]c2-c2ccc3ncnn3c2)n1 [Compound 1.13] | 10 to 100 nM
Cc1cccc(-c2nc(CNCC3CC3)[nH]c2-c2ccc3ncnn3c2)n1 [Compound 1.8] | 100 to 1000 nM
Cc1cccc(-c2nc(CNCCc3cccc4ncccc34)[nH]c2-c2ccc3ncnn3c2)n1 [Compound 1.61] | 10 to 100 nM
Cc1cccc(-c2nc(CNCc3ccc4ccccc4c3)[nH]c2-c2ccc3ncnn3c2)n1 [Compound 1.58] | 100 to 1000 nM
Cc1cccc(-c2nc(CN3CCCCC3)[nH]c2-c2ccn3ncnc3c2)n1 [Compound 1.35] | 100 to 1000 nM
Cc1cccc(-c2nc(C3CCNC3)[nH]c2-c2ccc3ncnn3c2)n1 (centres unmarked) [Compound 1.50] | 100 to 1000 nM
Cc1cccc(-c2nc(CNc3cccc4c3CNCC4)[nH]c2-c2ccc3ncnn3c2)n1 [Compound 1.3] | 100 to 1000 nM
Cc1cccc(-c2nc(CNC3CCc4ccccc43)[nH]c2-c2ccc3ncnn3c2)n1 (centres unmarked) [Compound 1.26] | 10 to 100 nM
Cc1cccc(-c2nc(CN3Cc4ccccc4C3=O)[nH]c2-c2ccc3ncnn3c2)n1 [Compound 1.56] | 10 to 100 nM
Cc1cccc(-c2nc(CN[C@@H]3c4ccccc4C[C@H]3O)[nH]c2-c2ccc3ncnn3c2)n1 [Compound 1.46] | 10 to 100 nM
Cc1cccc(-c2nc(CNC3CCNCC3)[nH]c2-c2ccn3ncnc3c2)n1 [Compound 1.39] | 1000 to 10000 nM
Cc1cccc(-c2nc(CNCCc3cccc4ccccc34)[nH]c2-c2ccc3ncnn3c2)n1 [Compound 1.59] | 10 to 100 nM
Cc1cccc(-c2nc(CNc3cncc(CN)c3)[nH]c2-c2ccc3ncnn3c2)n1 [Compound 1.19] | 100 to 1000 nM
Cc1cccc(-c2nc(CN[C@H]3c4ccccc4C[C@H]3O)[nH]c2-c2ccc3ncnn3c2)n1 [Compound 1.43] | 10 to 100 nM
Cc1cccc(-c2nc(CNCCc3c(F)cccc3F)[nH]c2-c2ccnc3ccccc23)n1 [Compound 79] | 100 to 1000 nM
Cc1cccc(-c2nc(C3CCCCN3)[nH]c2-c2ccc3ncnn3c2)n1 (centres unmarked) [Compound 1.49] | 100 to 1000 nM

SMILES | IC50
Cc1cccc(-c2nc(C3CNC3)[nH]c2-c2ccc3ncnn3c2)n1 [Compound 1.53] | 1000 to 10000 nM
Cc1cccc(-c2nc(CN[C@@H]3c4ccccc4C[C@@H]3O)[nH]c2-c2ccc3ncnn3c2)n1 [Compound 1.44] | 10 to 100 nM
Cc1cccc(-c2nc(CNCc3ccccc3-c3ccccc3)[nH]c2-c2ccc3nccnc3c2)n1 [Compound 72] | 10 to 100 nM
Cc1cccc(-c2nc(CN[C@H]3c4ccccc4C[C@@H]3O)[nH]c2-c2ccc3ncnn3c2)n1 [Compound 1.45] | 10 to 100 nM
Cc1cccc(-c2nc(CN3CCc4ccccc4C3)[nH]c2-c2ccn3ncnc3c2)n1 [Compound 1.40] | 100 to 1000 nM
Cc1cccc(-c2nc(CNc3cccc4c3CCNC4)[nH]c2-c2ccc3ncnn3c2)n1 [Compound 1.4] | 100 to 1000 nM
Cc1cccc(-c2nc(CNCc3cccc(Oc4cccnc4)c3)[nH]c2-c2ccc3ncnn3c2)n1 [Compound 57] | 10 to 100 nM
Cc1cccc(-c2nc(CNCc3ccccc3)[nH]c2-c2ccc3c(c2)OCO3)n1 [Compound 76] | 10 to 100 nM
Cc1cccc(-c2nc(CNCc3ccccc3Oc3ccncc3)[nH]c2-c2ccc3ncnn3c2)n1 [Compound 55] | 1000 to 10000 nM
Cc1cccc(-c2nc(CNC3CCCCC3)[nH]c2-c2ccc3ncnn3c2)n1 [Compound 1.12] | 10 to 100 nM
Cc1cccc(-c2nc(CNCc3cccc(Oc4ccncc4)c3)[nH]c2-c2ccc3ncnn3c2)n1 [Compound 58] | 10 to 100 nM
Cc1cccc(-c2nc(CNC3CCCNC3)[nH]c2-c2ccn3ncnc3c2)n1 (centres unmarked) [Compound 1.38] | 1000 to 10000 nM
Cc1cccc(-c2nc(CNCC3CCCCC3)[nH]c2-c2ccc3ncnn3c2)n1 [Compound 1.42] | 10 to 100 nM
Cc1cccc(-c2nc(CNCc3ccccc3)[nH]c2-c2ccc3ncccc3n2)n1 [Compound 73] | 100 to 1000 nM
Cc1cccc(-c2nc(CNCc3ccccc3)[nH]c2-c2ccc3nccnc3c2)n1 [Compound 77] | 0.1 to 10 nM
Cc1cccc(-c2nc(CNCc3ccccc3)[nH]c2-c2ccccn2)n1 [Compound 75] | 100 to 1000 nM
